From publication PMC8226722, “Comparison of Solution Chemical Properties and Biological Activity of Ruthenium Complexes of Selected β-Diketone, 8-Hydroxyquinoline and Pyrithione Ligands” (Pharmaceuticals, 2021)

Key:
physchem = experiment: physchem
Protocol: The solution speciation studies of complexes 1–4 were performed using UV-vis spectrophotometry and pH-potentiometry in the presence of 200 mM chloride ions.
(§1) Titrations were performed in a carbonate-free KOH solution (0.20 M). The exact concentration of HCl and KOH solutions was determined by pH-potentiometric titrations.
(§2) The path length (l) was usually 1 cm, and 2, 5, 20 or 50 mm cells were used occasionally. Equilibrium constants (proton dissociation, stability constants, conditional stability constants (K’7.4) for the formation of mim adducts) and the individual spectra of the species were calculated with the computer program PSEQUAD [55]. The spectrophotometric titrations were performed in aqueous solution of the complexes at 25.0 ± 0.1 °C at an ionic strength of 0.20 M (KCl). Spectrum of the solution of 200 μM complex upon addition of one or two equivalents of its own ligand or phen was also measured at pH 7.4. UV-vis spectra recorded for the complexes as a function of chloride concentrations or PTA (in case of the chlorido complexes) were used to investigate the co-ligand exchange processes at pH 7.4. […] In some cases, the measurements were performed in the presence of 1–2% (Cl^−/PTA exchange reactions) or 6–8% (v/v) (interaction of mim with complexes 2, 4) DMSO.

[1] = tested on: MRC-5 normal human embryonal lung fibroblast cells; experiment: MTT cytotoxicity assay, MRC-5; type: cell-based; settings: 72 h
Protocol: (§3) Human colonic adenocarcinoma cell lines Colo 205 doxorubicin-sensitive (ATCC-CCL-222) and Colo 320/MDR-LRP multidrug resistant expressing ABCB1 (MDR1)-LRP (ATCC-CCL-220.1) were purchased from LGC Promochem (Teddington, UK). […] Cell lines were incubated at 37 °C, in a 5% CO2, 95% air atmosphere. The semi-adherent human colon cancer cells were detached with Trypsin-Versene (EDTA, Sigma, Steinheim, Germany) solution for 5 min at 37 °C. MRC-5 human embryonal lung fibroblast cell lines (ATCC CCL-171) were purchased from LGC Promochem. […] The cell lines were incubated at 37 °C, in a 5% CO2, 95% air atmosphere.
(§4) In the study MRC-5 non-cancerous human embryonic lung fibroblast and human colonic adenocarcinoma cell lines (doxorubicin-sensitive Colo 205 and multidrug resistant Colo 320 colonic adenocarcinoma cells) were used to determine the effect of compounds on cell growth. The effects of increasing concentrations of compounds on cell growth were tested in 96-well flat-bottomed microtiter plates. The stock solutions of the compounds were prepared in DMSO, and in the final samples the DMSO content was always lower than 1%. The compounds were diluted in a volume of 100 μL of medium.
(§5) In case of the colonic adenocarcinoma cells, the two-fold serial dilutions of compounds were prepared in 100 μL of RPMI 1640, horizontally. The semi-adherent colonic adenocarcinoma cells were treated with Trypsin-Versene (EDTA) solution. They were adjusted to a density of 1 × 10^4 cells in 100 μL of RPMI 1640 medium, and were added to each well, with the exception of the medium control wells. The final volume of the wells containing compounds and cells was 200 μL.
(§6) The culture plates were incubated at 37 °C for 72 h; at the end of the incubation period, 20 μL of MTT (Sigma) solution (from a stock solution of 5 mg/mL) were added to each well. After incubation at 37 °C for 4 h, 100 μL of sodium dodecyl sulfate (SDS) (Sigma) solution (10% in 0.01 M HCl) were added to each well and the plates were further incubated at 37 °C overnight. Cell growth was determined by measuring the optical density (OD) at 540/630 nm with Multiscan EX ELISA reader (Thermo Labsystems, Cheshire, WA, USA). […] Curves were fitted by Prism software (GraphPad Software Inc., San Diego, CA, USA) using the sigmoidal dose-response model (comparing variable and fixed slopes). The IC50 values were obtained from at least 3 independent experiments.

[2] = tested on: Colo 205 chemo-sensitive human colonic adenocarcinoma cell line; experiment: MTT cytotoxicity assay, Colo 205; type: cell-based; settings: for IC50: 72 h, MTT; for S.I. MRC-5/Colo 205: ratio of the indicated IC50 values
Protocol: as §3, §4, §5, §6

[3] = tested on: Enterococcus faecalis ATCC 29212; experiment: MIC determination (CLSI broth microdilution); type: cell-based; settings: Gram-positive, ATCC 29212, 18 h
Protocol: (§7) Wild-type Escherichia coli K-12 AG100 strain [argE3 thi-1 rpsL xyl mtl Δ(gal-uvrB) supE44] expressing the AcrAB TolC EP at its basal level and Klebsiella pneumoniae ATCC 49,619 Gram-negative strains were studied in the experiments. Staphylococcus aureus ATCC 43,300 methicillin-resistant (MRSA) strain and Enterococcus faecalis ATCC 29,212 strain were used as Gram-positive strains in the assays. MIC values of the complexes were determined in 96-well plates based on the Clinical and Laboratory Standard Institute guidelines (CLSI guidelines). The stock solutions of the compounds (dissolved in DMSO using 10 mM concentration) were diluted in 100 μL of Mueller Hinton Broth. Then 10^−4 dilution of an overnight bacterial culture in 100 μL of medium was added to each well, with the exception of the medium control wells.

[4] = tested on: Klebsiella pneumoniae ATCC 49619; experiment: MIC determination (CLSI broth microdilution); type: cell-based; settings: Gram-negative, ATCC 49619, 18 h
Protocol: as §7

[5] = tested on: Escherichia coli K-12 AG100; experiment: MIC determination (CLSI broth microdilution); type: cell-based; settings: Gram-negative, AG100, 18 h
Protocol: as §7

[6] = tested on: Staphylococcus aureus ATCC 43300 methicillin-resistant (MRSA); experiment: MIC determination (CLSI broth microdilution); type: cell-based; settings: Gram-positive, MRSA ATCC 43300, 18 h
Protocol: as §7

[7] = tested on: Colo 320 multidrug resistant human colonic adenocarcinoma cell line; experiment: MTT cytotoxicity assay, Colo 320; type: cell-based; settings: for IC50: 72 h, MTT; for S.I. MRC-5/Colo 320: ratio of the indicated IC50 values
Protocol: as §3, §4, §5, §6

Vero cells = experiment: MTT cytotoxicity in Vero cells (maximum non-toxic concentration); settings: 24 h
Protocol: The antiviral effect of complexes against HSV-2 was screened using Vero cells (originally isolated from kidney epithelial cells) to host the growing viruses.
(§8) HeLa 229 cells (ATCC) and Vero cells (ATCC) were cultured in minimal essential medium (MEM) (Sigma, Steinheim, Germany) with Earle salts supplemented with 10% heat-inactivated fetal bovine serum (FBS) (Gibco; ThermoFisher Scientific, Inc., Waltham, MA, USA), 2 mM L-glutamine, 1× non-essential amino acids, 8 mM HEPES, 25 μg/mL gentamycin and 1 µg/mL fungisone. The cells were incubated for 1 h at room temperature to reduce the edge effect and then overnight at 37 °C, 5% CO2 to obtain a 90% confluent cell layer.
(§9) The density of cells was 4 × 10^4 cells/well in 100 µL of MEM with Earle salts supplemented with 10% heat-inactivated FBS, 2 mM L-glutamine, 1× MEM vitamins, 1× non-essential amino acids, 0.005% Na-pyruvate, 25 µg/mL gentamycin, 1 µg/mL fungisone). The plates were incubated for 1 h room temperature and then overnight at 37 °C, 5% CO2. Next day, when the cells reached a ~90% confluency, the medium was supplemented with the serial 2-fold dilutions of the complexes in three parallel wells for each concentration. […] After 24 h incubation for Vero cells and 48 h incubation for HeLa cells, 10 µL of the MTT (Sigma, Steinheim, Germany) labelling reagent (final concentration 0.5 mg/mL) was added to each well and the plate was incubated for 4 h at 37 °C, 5% CO2. After the incubation, 100 µL of the solubilisation solution (10% SDS in 1 M HCl) was added into each well, and the plate was allowed to stand overnight in the incubator at 37 °C, 5% CO2.

[8] = molecular target: ABCB1 (P-glycoprotein) efflux pump (Homo sapiens, UniProt P08183); experiment: Rhodamine 123 uptake/retention fluorescence assay (flow cytometry) in Colo 320 cells
Protocol: It is important to note, that the resistance of this cell line is primarily mediated by the overexpression of the ABC-transporter P-glycoprotein, which pumps out xenobiotics from the cytosol. […] This dye is membrane-permeable and is rapidly taken up by the cells; therefore, it can be effectively used for the screening of efflux pump inhibiting compounds. […] Then the fluorescence accumulation ratios (FAR) were calculated (Figure 1) according to the equation given in the Materials and Methods section. Verapamil was used as a reference inhibitor compound.
This fluorescence-based detection system uses verapamil (a first-generation, competitive EPI) as reference inhibitor. […] The tested compounds were added at different concentrations (2 and 20 µM; from 1 and 10 mM stock solutions, respectively) and the samples were incubated for 10 min at room temperature.
The parameters evaluated from flow cytometric experiments are forward scatter count (FSC, provides information about cell size); side scatter count (SSC, proportional to cell granularity or internal complexity); mean fluorescence of the cells (FL-1) and the computed FAR and FAR quotients (Table S1).

[9] = Solution stability and speciation (UV-vis, 1H-NMR, pH-potentiometry); settings: PBS’, pH 7.4, 2% DMSO, up to 24 h
Protocol: In order to confirm our prediction, time-dependent UV-visible (UV-vis) spectra were recorded for complexes 5–8 at pH 7.4 in aqueous solution (in modified phosphate buffered saline (PBS) buffer—PBS’) and in Eagle’s minimum essential medium (EMEM) used for the cytotoxicity studies in the presence of 2% (v/v) dimethyl sulfoxide (DMSO). […] Additionally, ^1H-NMR spectra were recorded for more water-soluble complexes 6–8.
In order to compare the stability of 1 and 3 at physiological pH, a serial dilution was made and UV-vis spectra were recorded in a wide concentration range (10 μM–3 mM) (Figure S10).
as §1, §2
^1H-NMR stability studies were carried out on a Bruker Avance III HD 500 MHz instrument. All ^1H-NMR spectra were recorded on samples containing 10% (v/v) D2O with the WATERGATE water suppression pulse scheme using DSS internal standard. Stability of complexes 6–8 was checked over time by ^1H-NMR spectroscopy at 500 μM in PBS’ or in EMEM (with 10% (v/v) DMSO-d6).

[10] = tested on: HeLa 229 human cervix carcinoma cells; experiment: MTT cytotoxicity in HeLa 229 cells (maximum non-toxic concentration); settings: 48 h
Protocol: as §8, §9

Chain of ABCB1 (P-glycoprotein) efflux pump (P08183 whole entry): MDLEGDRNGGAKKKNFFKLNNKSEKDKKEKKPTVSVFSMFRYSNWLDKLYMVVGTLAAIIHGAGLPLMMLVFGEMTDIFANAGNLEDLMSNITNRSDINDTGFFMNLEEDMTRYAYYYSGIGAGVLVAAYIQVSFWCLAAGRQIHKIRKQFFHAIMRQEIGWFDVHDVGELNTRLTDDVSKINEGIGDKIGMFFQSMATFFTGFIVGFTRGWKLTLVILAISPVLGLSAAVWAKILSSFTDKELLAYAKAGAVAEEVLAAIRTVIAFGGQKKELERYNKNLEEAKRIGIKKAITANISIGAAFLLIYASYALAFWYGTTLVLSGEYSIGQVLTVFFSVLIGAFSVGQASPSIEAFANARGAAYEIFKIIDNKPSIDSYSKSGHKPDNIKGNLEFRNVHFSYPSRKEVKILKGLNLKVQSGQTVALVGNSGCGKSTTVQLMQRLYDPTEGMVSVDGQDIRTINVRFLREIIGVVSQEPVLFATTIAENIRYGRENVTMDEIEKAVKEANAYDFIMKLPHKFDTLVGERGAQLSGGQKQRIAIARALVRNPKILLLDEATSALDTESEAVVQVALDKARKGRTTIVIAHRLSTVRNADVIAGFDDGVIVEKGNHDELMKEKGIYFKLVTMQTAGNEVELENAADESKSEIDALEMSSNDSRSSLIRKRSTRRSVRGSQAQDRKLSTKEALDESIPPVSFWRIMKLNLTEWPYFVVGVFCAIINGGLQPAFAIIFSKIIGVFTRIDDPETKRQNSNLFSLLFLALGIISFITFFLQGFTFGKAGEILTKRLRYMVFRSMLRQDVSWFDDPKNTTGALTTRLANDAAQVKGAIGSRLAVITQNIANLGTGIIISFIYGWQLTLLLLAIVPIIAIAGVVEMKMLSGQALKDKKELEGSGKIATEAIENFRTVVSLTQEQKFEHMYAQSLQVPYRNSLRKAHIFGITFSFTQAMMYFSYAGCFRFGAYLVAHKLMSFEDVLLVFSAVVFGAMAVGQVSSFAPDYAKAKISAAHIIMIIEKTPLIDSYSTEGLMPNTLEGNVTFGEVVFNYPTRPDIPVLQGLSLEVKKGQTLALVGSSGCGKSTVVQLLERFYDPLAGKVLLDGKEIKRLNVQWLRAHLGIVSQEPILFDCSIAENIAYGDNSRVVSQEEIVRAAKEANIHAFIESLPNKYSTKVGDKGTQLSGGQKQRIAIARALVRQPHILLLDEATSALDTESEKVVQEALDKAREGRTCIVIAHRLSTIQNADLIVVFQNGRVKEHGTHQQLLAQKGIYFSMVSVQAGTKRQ

Structure (SMILES) | IC50 [1] | IC50 [2] | MIC E. faecalis [3] | MIC K. pneumoniae [4] | MIC E. coli [5] | MIC S. aureus [6] | IC50 [7] | S.I. MRC-5/Colo 205 [2] | S.I. MRC-5/Colo 320 [7] | other results
On1ccc2ccccc2c1=S [HHiQT, 2-hydroxyisoquinoline-1(2H)-thione] | – | – | – | – | – | – | – | – | – | pKa (physchem): 4.63 ± 0.08
Cc1ccc(C(C)C)cc1.[Cl][Ru]([Cl])[PH]12CN3CN(CN(C3)C1)C2 [RAPTA-C, [Ru(η^6-p-cymene) (PTA)Cl2], reference compound] | > 100 µM | > 100 µM | >100 µM | >100 µM | >100 µM | >100 µM | > 100 µM | – | – | –
N.N.[Cl][Pt][Cl] [cisplatin, reference compound] | 0.88 ± 0.09 µM | 29.8 ± 1.2 µM | >100 µM | >100 µM | >100 µM | >100 µM | 5.58 ± 0.7 µM | 0.03 | 0.16 | –
Cc1ccc(C(C)C)cc1.[Cl-].[O-]c1c(I)cc(Cl)c2cccnc12.[Ru+2] [complex 5] | 2.95 ± 0.71 µM | 21 ± 2.4 µM | 12.5 µM | >100 µM | >100 µM | 25 µM | 13.7 ± 0.85 µM | 0.14 | 0.21 | concentrations at which maximum cytotoxicity was observed, Vero (Vero cells): 12.5 to 100 µM; maximum non-toxic concentration, Vero (Vero cells): 6.25 µM; FAR fluorescence accumulation ratio ([8]; Colo 320, 2 μM): 6.19; FAR quotient (FAR related to that of 20 μM verapamil) ([8]; Colo 320, 2 μM): 128.7%; FSC forward scatter count ([8]; Colo 320, 2 μM): 1917; SSC side scatter count ([8]; Colo 320, 2 μM): 840; FAR fluorescence accumulation ratio ([8]; Colo 320, 20 μM): 3.66; FAR quotient (FAR related to that of 20 μM verapamil) ([8]; Colo 320, 20 μM): 76.0%; FSC forward scatter count ([8]; Colo 320, 20 μM): 1950; SSC side scatter count ([8]; Colo 320, 20 μM): 877; FL-1 mean fluorescence of the cells ([8]; Colo 320, rhodamine 123, 2 μM): 32.7; FL-1 mean fluorescence of the cells ([8]; Colo 320, rhodamine 123, 20 μM): 19.3; FAR value ([8]; Colo 320, tested at 2 μM and 20 μM): above 2; stability in PBS’ at pH 7.4, time-dependent UV-vis spectra [9]: No characteristic UV-vis spectral changes within 24 h; maximum non-toxic concentration, HeLa 229 [10]: 25 µM
